Measured values reported in patent publication US20260151516A1, “NEW PET TRACER FOR IMAGING OF THE FUNCTIONAL HEPATIC RESERVE” (Medizinische Universität Innsbruck, priority 2022, published 2026).

What was measured:
[1] = Biodistribution studies incl. blocking experiments; type: in vivo; settings: healthy BALB/c mice
Description: For biodistribution studies 6 week old female BALB/c mice (n=3) were injected with 0.1 nmol (100 μL, approx. 1 MBq) of labelled compound via the lateral tail vein and sacrificed after 10, 30, or 60 min by cervical dislocation. The mice were dissected, blood and organs (spleen, pancreas, stomach, intestine, liver, kidney, heart, lung, muscle, and bone) were weighed, and their activity measured in a γ-counter. For blocking experiments, mice were co-injected with 100 μL of a 277 mM Galactose/PBS solution. In case of [^68Ga]Ga-TRAP-GalNAc a 277 mM N-Acetylgalactose solution was used.

[2] = Partition coefficient (log D), n-Octanol/PBS; type: physicochemical
Description: The vials were vortexed for 5 min at 1,500 rpm and then centrifuged for 5 min at 20,000 rcf (Eppendorf Centrifuge 5424).

[3] = tested on: human serum; assay: Protein binding in fresh human serum (Sephadex MicroSpin G-50 columns); type: in vitro ADME; settings: 37° C., 30 min
Description: Protein binding was determined for different time points (2 min, 30 min, 60 min, 120 min) in triplicates using Sephadex MicroSpin G-50 columns (GE-Healthcare, Chicago, Illinois, USA). The columns were spun initially at 20,000 rcf for 1 min to remove the storage buffer. Then approx. 5 MBq of radioligand was added to 1 mL of fresh human serum and incubated at 37° C. At each given timepoint 25 μL of the mixture was loaded on to the column, which was then spun at 20,000 rcf for 1 min. The activity content on the column (free radioligand) and in the filtrate (protein bound fraction) was quantified in a γ-counter.

[4] = 30 min p.i., blocking with 277 mM galactose

O=C(CCP(=O)(O)CN1CCN(CP(=O)(O)CCC(=O)NCc2cn([C@@H]3O[C@H](CO)[C@H](O)[C@H](O)[C@H]3O)nn2)CCN(CP(=O)(O)CCC(=O)NCc2cn([C@@H]3O[C@H](CO)[C@H](O)[C@H](O)[C@H]3O)nn2)CC1)NCc1cn(C2O[C@H](CO)[C@H](O)[C@H](O)[C@H]2O)nn1 (stereo partly shown) [Galacto-TRAP]
Biodistribution Liver [1, 4]: 3.24±0.2 % ID/g

O=C(CCP(=O)([O-])CN1CCN(CP(=O)([O-])CCC(=O)NCc2cn([C@@H]3O[C@H](CO)[C@H](O)[C@H](O)[C@H]3O)nn2)CCN(CP(=O)([O-])CCC(=O)NCc2cn([C@@H]3O[C@H](CO)[C@H](O)[C@H](O)[C@H]3O)nn2)CC1)NCc1cn([C@@H]2O[C@H](CO)[C@H](O)[C@H](O)[C@H]2O)nn1.[68Ga+3] [[^68Ga]Ga-Galacto-TRAP]
logD [2]: −4.16±0.09 | Biodistribution Femur ([1]; 10 min p.i.): 1.11 ± 0.18 % ID/g | Biodistribution Heart ([1]; 10 min p.i.): 6.08 ± 0.51 % ID/g | Biodistribution Intestine ([1]; 10 min p.i.): 1.80 ± 0.16 % ID/g | Biodistribution Liver ([1]; 10 min p.i.): 12.2 ± 1.4 % ID/g | Biodistribution Lung ([1]; 10 min p.i.): 1.97 ± 0.07 % ID/g | Biodistribution Muscle ([1]; 10 min p.i.): 3.25 ± 0.27 % ID/g | Biodistribution Pancreas ([1]; 10 min p.i.): 1.20 ± 0.03 % ID/g | Biodistribution Spleen ([1]; 10 min p.i.): 5.58 ± 0.17 % ID/g | Biodistribution Stomach ([1]; 10 min p.i.): 1.17 ± 0.05 % ID/g | Biodistribution Blood ([1]; 30 min p.i.): 0.47 ± 0.16 % ID/g | Biodistribution Femur ([1]; 30 min p.i.): 0.44 ± 0.01 % ID/g | Biodistribution Heart ([1]; 30 min p.i.): 5.44 ± 0.75 % ID/g | Biodistribution Intestine ([1]; 30 min p.i.): 0.79 ± 0.15 % ID/g | Biodistribution Kidneys ([1]; 30 min p.i.): 0.88 ± 0.07 % ID/g | Biodistribution Liver ([1]; 30 min p.i.): 5.02 ± 1.08 % ID/g | Biodistribution Lung ([1]; 30 min p.i.): 0.75 ± 0.16 % ID/g | Biodistribution Pancreas ([1]; 30 min p.i.): 0.49 ± 0.07 % ID/g | Biodistribution Spleen ([1]; 30 min p.i.): 2.17 ± 0.54 % ID/g | Biodistribution Stomach ([1]; 30 min p.i.): 0.53 ± 0.05 % ID/g | Biodistribution Blood [1, 4]: 0.43 ± 0.14 % ID/g | Biodistribution Femur [1, 4]: 0.38 ± 0.06 % ID/g | Biodistribution Heart [1, 4]: 3.24 ± 0.19 % ID/g | Biodistribution Intestine [1, 4]: 0.67 ± 0.15 % ID/g | Biodistribution Kidneys [1, 4]: 0.75 ± 0.11 % ID/g | Biodistribution Liver [1, 4]: 5.10 ± 0.72 % ID/g | Biodistribution Lung [1, 4]: 0.68 ± 0.08 % ID/g | Biodistribution Muscle [1, 4]: 1.35 ± 0.16 % ID/g | Biodistribution Pancreas [1, 4]: 0.43 ± 0.02 % ID/g | Biodistribution Spleen [1, 4]: 1.84 ± 0.14 % ID/g | Biodistribution Stomach [1, 4]: 0.48 ± 0.05 % ID/g | Biodistribution Blood ([1]; 60 min p.i.): 0.11 ± 0.03 % ID/g | Biodistribution Femur ([1]; 60 min p.i.): 0.10 ± 0.04 % ID/g | Biodistribution Heart ([1]; 60 min p.i.): 4.84 ± 0.66 % ID/g | Biodistribution Intestine ([1]; 60 min p.i.): 0.14 ± 0.02 % ID/g | Biodistribution Kidneys ([1]; 60 min p.i.): 0.60 ± 0.06 % ID/g | Biodistribution Lung ([1]; 60 min p.i.): 0.12 ± 0.01 % ID/g | Biodistribution Muscle ([1]; 60 min p.i.): 0.35 ± 0.05 % ID/g | Biodistribution Pancreas ([1]; 60 min p.i.): 0.12 ± 0.02 % ID/g | Biodistribution Spleen ([1]; 60 min p.i.): 0.52 ± 0.23 % ID/g | Biodistribution Stomach ([1]; 60 min p.i.): 0.11 ± 0.01 % ID/g

O=C(CCP(=O)([O-])CN1CCN(CP(=O)([O-])CCC(=O)NCc2cn(CCOCCOCCO[C@@H]3O[C@H](CO)[C@@H](O)[C@H](O)[C@H]3O)nn2)CCN(CP(=O)([O-])CCC(=O)NCc2cn(CCOCCOCCO[C@@H]3O[C@H](CO)[C@@H](O)[C@H](O)[C@H]3O)nn2)CC1)NCc1cn(CCOCCOCCO[C@@H]2O[C@H](CO)[C@@H](O)[C@H](O)[C@H]2O)nn1.[68Ga+3] [[^68Ga]Ga-TRAP-Gluco, reference compound]
logD [2]: −3.8 ± 0.08 | Protein binding (%) [3]: 3.3 ± 2.0% | Biodistribution Blood ([1]; 10 min p.i.): 4.53 ± 0.52 % ID/g | Biodistribution Femur ([1]; 10 min p.i.): 0.86 ± 0.10 % ID/g | Biodistribution Intestine ([1]; 10 min p.i.): 1.10 ± 0.12 % ID/g | Biodistribution Kidneys ([1]; 10 min p.i.): 10.20 ± 1.23 % ID/g | Biodistribution Liver ([1]; 10 min p.i.): 1.06 ± 0.07 % ID/g | Biodistribution Lung ([1]; 10 min p.i.): 2.84 ± 0.13 % ID/g | Biodistribution Muscle ([1]; 10 min p.i.): 0.99 ± 0.10 % ID/g | Biodistribution Pancreas ([1]; 10 min p.i.): 1.03 ± 0.08 % ID/g | Biodistribution Spleen ([1]; 10 min p.i.): 0.94 ± 0.03 % ID/g | Biodistribution Stomach ([1]; 10 min p.i.): 1.59 ± 0.44 % ID/g | Biodistribution Blood ([1]; 30 min p.i.): 1.40 ± 0.50 % ID/g | Biodistribution Femur ([1]; 30 min p.i.): 0.15 ± 0.14 % ID/g | Biodistribution Heart ([1]; 30 min p.i.): 1.07 ± 0.34 % ID/g | Biodistribution Intestine ([1]; 30 min p.i.): 0.57 ± 0.20 % ID/g | Biodistribution Kidneys ([1]; 30 min p.i.): 3.95 ± 1.12 % ID/g | Biodistribution Liver ([1]; 30 min p.i.): 0.51 ± 0.17 % ID/g | Biodistribution Lung ([1]; 30 min p.i.): 0.32 ± 0.10 % ID/g | Biodistribution Muscle ([1]; 30 min p.i.): 0.35 ± 0.12 % ID/g | Biodistribution Pancreas ([1]; 30 min p.i.): 0.47 ± 0.18 % ID/g | Biodistribution Spleen ([1]; 30 min p.i.): 0.41 ± 0.13 % ID/g | Biodistribution Stomach ([1]; 30 min p.i.): 0.61 ± 0.19 % ID/g | Biodistribution Blood ([1]; 60 min p.i.): 0.16 ± 0.06 % ID/g | Biodistribution Femur ([1]; 60 min p.i.): 0.08 ± 0.03 % ID/g | Biodistribution Heart ([1]; 60 min p.i.): 0.08 ± 0.02 % ID/g | Biodistribution Intestine ([1]; 60 min p.i.): 0.14 ± 0.05 % ID/g | Biodistribution Kidneys ([1]; 60 min p.i.): 1.87 ± 0.33 % ID/g | Biodistribution Liver ([1]; 60 min p.i.): 0.15 ± 0.02 % ID/g | Biodistribution Lung ([1]; 60 min p.i.): 0.31 ± 0.03 % ID/g | Biodistribution Muscle ([1]; 60 min p.i.): 0.05 ± 0.01 % ID/g | Biodistribution Pancreas ([1]; 60 min p.i.): 0.09 ± 0.03 % ID/g | Biodistribution Spleen ([1]; 60 min p.i.): 0.11 ± 0.01 % ID/g | Biodistribution Stomach ([1]; 60 min p.i.): 0.09 ± 0.03 % ID/g
